Laboratory results: patent US10913732B2, “Furoxans as therapies for neurodegenerative disorders” (The University of Toledo, priority 2016, dated 2021)

Assays:
[1] = tested on: Male C57BL/6 mice; experiment: Step-through passive avoidance (STPA), scopolamine-induced amnesia; assay type: in vivo; details: scopolamine 1 mg/kg i.p. alone (vehicle treated: 270 s±30 s), 24 hr after training
Procedure: FIGS. 4A-4B: STPA experimental timeline (FIG. 4A), and results of Male C57BL/6 mice administered either vehicle or 31b via i.p. injection at 60 min or 120 min prior to training in STPA (FIG. 4B). […] Memory retention was measured as latency to enter the dark compartment 24 h after training. Data represented as mean and s.e.m.
The STPA apparatus consisted of an acrylic box with an illuminated compartment connected to a darkened compartment by a small guillotine door. Mice were placed in the illuminated side and were trained against their natural tendency to translocate to the dark side using an aversive stimulus (shock via electrified floor grading). Memory consolidation is measured as the latency times to enter the dark compartment 24 hr after training.
All procedures were performed under the approved IACUC protocol #108451. Male C57BL/6 mice (Envigo), N=9 per group, were habituated at the animal facility for at least 14 days. Ear tags were applied and animals weighed. 2 hr prior to the drug adminstration the mice were individually acclimated to the illuminated compartment to assess tendency to enter the dark chamber (measured in seconds). In this phase no shock was be delivered. […] The mice were then administered either vehicle (95 [0.9% NaCl]:5 [DMSO]) or 31b (0.1, 1, 10, or 20 mg/kg) via i.p. injection (50 μL) at 1 h or 2 h prior to training. […] Mice were individually placed into the light compartment and upon translocation to the dark compartment the guiltine door closed and the mice were trained by delivering a mild adversive stimulus (0.5 mA) via the electrified floor grading of the dark chamber. Each mouse was held in the dark chamber for 30 seconds, then returned to their cage for 120 seconds before the second training session. […] Memory retention was measured 24 hours after training by placing the same mouse in the light chamber and measuring latency to enter the dark chamber (no aversive stimulus is delivered during the retention test). Data was analyzed by one way ANOVA analysis with Dunnett's post-hoc test.

[2] = tested on: PC12 cells; experiment: In vitro neuroprotection against oxygen glucose deprivation (OGD), MTT viability readout; assay type: cell-based; details: OGD 90 min, reoxygenation, furoxan 1, 10 or 25 μM, 24 hr
Procedure: FIGS. 3A-3C: Neuroprotection (FIG. 3A), MTT treatment was used to assess cell viability (FIG. 3B), and pCREB modulation (FIG. 3C) of furoxan compounds. Neuroprotection assay workflow: expose PC12 cells to oxygen glucose deprivation (OGD) for 90 min→reoxygenate and add furoxan (1, 10, or 25 μM)→incubate for 24 hr→MTT readout of viability. Data represented as mean and s.e.m. (n=3). *=p<0.05, **=p<0.01, ***=p<0.001 compared to vehicle control using one way ANOVA analysis with Dunnett's post-hoc test. Red dashed line indicates threshold of vehicle effects. For pCREB modulation, 31b (25 μM) was examined (PC-12 cells, 48 hr incubation) in the following: without insult, with OGD, L-NAME.
It has been shown that furoxans are protective against oxygen glucose deprivation (OGD), a commonly used cellular model of ischemic stroke. PC12 cells were submitted to OGD for 90 minutes followed by reoxygenation and treatment with varying concentrations of selected embodiments of compounds of Formula I (indicated in FIG. 3A). After 24 hr, MTT treatment was used to assess cell viability (FIG. 3B). […] It has been shown previously that 4-N-oxides release NO at a much slower rate than corresponding 2-N-oxides.

| Structure (SMILES) | Latency to enter the dark compartment [1] | Neuroprotection against OGD (cell viability by MTT) [2] |
| --- | --- | --- |
| CN1[C@@H]2C[C@@H](OC(=O)[C@H](CO)c3ccccc3)C[C@H]1[C@@H]1O[C@@H]12 [Scopolamine, reference compound] | 63.5 s |  |
| CC1CCN(Cc2no[n+]([O-])c2-c2ccc(Br)cc2)CC1 [33b] |  | outperform the corresponding 2-N-oxides |
| [2H]C1([2H])CC(C)CC([2H])([2H])N1Cc1no[n+]([O-])c1-c1ccc(F)cc1 [41b] |  | outperform the corresponding 2-N-oxides |
| Cc1ccc(-c2c(CN3CCC(C)CC3)no[n+]2[O-])cc1 [38b, 4-((4-methylpiperdin-1-yl)methyl)-3-(p-tolyl)-1,2,5-oxadiazole 2-oxide] |  | outperform the corresponding 2-N-oxides |
| CC1CCN(Cc2no[n+]([O-])c2-c2ccc(OC(F)(F)F)cc2)CC1 [37b, 4-((4-methylpiperidin-1-yl)methyl)-3-(4-(trifluoromethoxy)phenyl)-1,2,5-oxadiazole 2-oxide] |  | outperform the corresponding 2-N-oxides |
